Data on 4 compounds can be found in EP1718623B1, “COMPOUNDS AS INHIBITORS OF CELL PROLIFERATION AND VIRAL INFECTIONS” (4SC AG, priority 2004, dated 2005).

In assay [1] the test system is peripheral blood monocyte (PBMC). Nature of the assay: T Lymphocyte Proliferation Assay (PHA-stimulated PBMC, BrdU incorporation ELISA). Type of assay: cell-based. Conditions: Homo sapiens, PBMCs stimulated with 2 µg/ml phytohemoagglutinin, 72 h. The protocol: We used a nonradioactive technique for the measurement of in vitro T-cell proliferation (Messele T et al. Clinical and Diagnostic Laboratory Immunology,687-692,2002).
Peripheral blood mononuclear cells (PBMCs) were isolated from human blood obtained from volunteer donators. PBMCs were isolated by centrifugation in ACCUSPIN tubes using HISTOPAQUE.
PBMCs were stimulated with PHA and cell proliferation was measured with a Roche colorimetric BromUridin incorporation ELISA kit.
Inhibition of stimulated peripheral blood monocyte (PBMC) stimulation
PBMCs were isolated from the blood of healthy volunteers with the help of ACCUSPIN™ System Histopaque®-1077 tubes, washed and resuspended with 10^6 cells/ml in Dulbecco's modified eagles medium, containing 10 % fetal calf serum and 2 mM Glutamine.
The cells were stimulated with 2 µg/ml phytohemoagglutinin in the presence of test compound or blank vehicle for 72 h. 4 h prior to the end of the incubation period, 5-bromo-2'-desoxyuridine (BrdU) was added to label the proliferating cells. After the incubation, the cells were separated by centrifugation and the culture supernatant removed. Incorporated BrdU was quantified with the help of an enzyme-linked immunosorbent assay.
For the determination of the IC50 values (concentration of inhibitor required for 50% inhibition) at least four different inhibitor concentrations were applied. […]
In general terms: Uptake of a labelled nucleoside into DNA is a usual measure of proliferation.

In a further assay the target is T1, 20S proteasome (Homo sapiens, UniProt P28074).
T1 construct: purchased Immatics, Tübingen
As to the kind of experiment: Proteasome assay (chymotryptic activity, Suc-LLVT-AMC substrate). Type of assay: biochemical. The following applies: 30°C, 20 min. The text has this: Regulation of the immune response is controlled by a variety of signalling pathways such as T-cell or TNF receptor signalling (Chen G et al. Scienc,296 1634-1640,2002). To further characterize targets of compounds which we found active in the T-cell proliferation assay, we tested the compounds on a variety of targets involved in such pathways. Compounds described here are inhibitors of T-lymphocyte proliferation were active on three molecular targets: Kv1.3 ion channels and Inosine Monophosphate Dehydrogenase (IMPDH) and the human proteasome. The compounds described may act on one of these targets specifically or on several targets simultaneously.
The chymotryptic activity of the 20S proteasome (Immatics, Tübingen) was determined using a Tecan Ultra plate reader and Suc-LLVT-AMC as substrate (Bachem). […]

For another assay, the target named is T2, Kv1.3 channels (Mus musculus, UniProt P16390).
T2 construct: expressed in transfected cells; host or cells: L929 cells
T2 sequence (P16390 whole entry): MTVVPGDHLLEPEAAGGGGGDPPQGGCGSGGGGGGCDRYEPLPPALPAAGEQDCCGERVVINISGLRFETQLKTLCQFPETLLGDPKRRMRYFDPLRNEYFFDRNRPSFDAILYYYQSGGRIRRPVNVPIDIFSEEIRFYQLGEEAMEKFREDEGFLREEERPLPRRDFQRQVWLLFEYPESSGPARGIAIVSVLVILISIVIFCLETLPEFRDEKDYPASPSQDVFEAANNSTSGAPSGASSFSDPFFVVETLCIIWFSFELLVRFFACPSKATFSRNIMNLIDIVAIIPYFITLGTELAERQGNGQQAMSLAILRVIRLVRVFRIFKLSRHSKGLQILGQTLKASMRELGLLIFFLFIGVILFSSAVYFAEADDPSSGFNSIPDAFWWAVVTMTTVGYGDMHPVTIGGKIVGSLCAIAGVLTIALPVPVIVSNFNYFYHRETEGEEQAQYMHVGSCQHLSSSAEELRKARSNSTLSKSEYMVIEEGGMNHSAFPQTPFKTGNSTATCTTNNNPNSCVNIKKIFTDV
Nature of the assay: Kv1.3 assay, whole-cell patch-clamp in stable transfected L929 cells. The following applies: c=20 µM; each compound tested on two different cells; steady-state current. In kind it is cell-based. The procedure:
The inhibition of Kv1.3 was measured in stable transfected cell lines expressing mouse Kv1.3 using the patch-clamp technique (Rauer H et al. J Biol Chem Vol.275, No. 2, 1201-1208, 2000), Rauer H Mol Pharmacol,50, 1625-1634, 1996, Rauer H et al. J Pharmacol, 127, 1065-1074, 1999).
Stable transfected L929 cells with Kv1.3 channels were grown in DMEM (Glutamax-I) media with 10% FCS, geneticin 330 µg/ml under 10% CO2 atmosphere.
Whole-cell patch-clamp configuration, with an external bath solution of 160 mM NaCl, 4,5 mM KCl, 1 mM MgCl, 2 mM CaCl2,5 mM HEPES, 10 mM EGTA and NaOH adjusted to pH 7. 4. Internal pipette solution for recording was 155 mM KF, 2 mM MgCl2 , 10 mM HEPES, 10 mM EGTA with KOH adjusted to pH 7.2. Currents were activated by a 200-ms voltage step from a holding potential of -80 to 40 mV every 30 s. Holding potential -80 mV.
Each compound was tested on two different cells. The cell was perfused with external bath solution (black line), then the compound was applied (c=20 µM). The resulting stedy-state current traces are shown as red lines. Example 3, 5, 6, 7, 8 are blockers.
(In general: In patch-clamp work, channel activity is measured electrically.)

A further assay deals with T-lymphocyte. Conditions: inhibits T-lymphocyte proliferation; Kath JC et al. 1997; cited from earlier work.
In a further assay the target is Kv1.3 (Homo sapiens, UniProt P22001). Conditions: blocks Kv1.3 currents; Kath JC et al. 1997; cited from earlier work.
Kv1.3, sequence (P22001 whole entry): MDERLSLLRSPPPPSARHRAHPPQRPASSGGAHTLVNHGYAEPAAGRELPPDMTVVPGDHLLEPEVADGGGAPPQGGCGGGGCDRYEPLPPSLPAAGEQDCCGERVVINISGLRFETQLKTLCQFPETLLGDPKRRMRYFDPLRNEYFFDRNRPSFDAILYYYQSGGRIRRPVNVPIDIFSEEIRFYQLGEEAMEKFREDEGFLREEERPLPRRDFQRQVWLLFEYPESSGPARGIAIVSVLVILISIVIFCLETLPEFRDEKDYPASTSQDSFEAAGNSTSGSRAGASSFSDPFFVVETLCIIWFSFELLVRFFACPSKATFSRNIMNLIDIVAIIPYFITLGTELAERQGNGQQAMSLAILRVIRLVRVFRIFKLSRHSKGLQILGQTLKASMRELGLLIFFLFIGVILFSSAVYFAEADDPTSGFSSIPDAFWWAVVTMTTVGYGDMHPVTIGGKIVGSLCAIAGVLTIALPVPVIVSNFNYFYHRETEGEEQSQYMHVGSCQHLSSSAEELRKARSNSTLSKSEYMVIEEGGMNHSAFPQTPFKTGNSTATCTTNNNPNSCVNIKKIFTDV

The term IC50 denotes the concentration needed to halve the response being measured. `O=C(Nc1ccc(C2=N[C@H](c3ccccc3)CO2)cc1)Nc1ccc(S(=O)(=O)NCc2cc(F)c(F)c(F)c2)cc1` [Example 1, 4-{3-[4-(4-(R)-Phenyl-4,5-dihydro-oxazol-2-yl)-phenyl]-ureido}-N-(3,4,5-trifluorobenzyl)-benzenesulfonamide]: the IC50 (in assay [1]; against 20S proteasome) was under 5 µM throughout. As for `O=C(Nc1ccc(C2=N[C@H](Cc3ccccc3)CO2)cc1)Nc1ccc(S(=O)(=O)NCc2cc(F)c(F)c(F)c2)cc1` [Example 3, 4-{3-[4-(4-(R)-Benzyl-4,5-dihydro-oxazol-2-yl)-phenyl]- -ureido}-N-(3,4,5-trifluorobenzyl)-benzenesulfonamide], the Kv1.3 block result on Kv1.3 channels was “blockers”.

Regarding `O=C(Nc1ccc(S(=O)(=O)NCc2cc(F)c(F)c(F)c2)cc1)Nc1cccc(C2=N[C@@H](Cc3ccccc3)CO2)c1` [Example 22, 4-{3-[3-(4-(S)-Benzyl-4,5-dihydro-oxazol-2-yl)-phenyl]-ureido}-N-(3,4,5-trifluorobenzyl)-benzenesulfonamide], the IC50 in assay [1] was under 5 µM. Regarding “noxiustoxin (TIINVKCTSPKQCSKPCKELYGSSAGAKCMNGKCKCYNN; UniProt P08815 1-39, looked up)”, the IC50 with T-lymphocyte is 8 nM; with Kv1.3 it was 0.2 nM.
